Assay results reported in US20250268903A1, “RXFP1 AGONISTS” (BRISTOL-MYERS SQUIBB COMPANY, priority 2021, published 2025).

Target: T1, human RXFP1 (Homo sapiens, UniProt Q9HBX9)
T1 construct: expressed in transfected cells
T1 sequence (Q9HBX9 1-757): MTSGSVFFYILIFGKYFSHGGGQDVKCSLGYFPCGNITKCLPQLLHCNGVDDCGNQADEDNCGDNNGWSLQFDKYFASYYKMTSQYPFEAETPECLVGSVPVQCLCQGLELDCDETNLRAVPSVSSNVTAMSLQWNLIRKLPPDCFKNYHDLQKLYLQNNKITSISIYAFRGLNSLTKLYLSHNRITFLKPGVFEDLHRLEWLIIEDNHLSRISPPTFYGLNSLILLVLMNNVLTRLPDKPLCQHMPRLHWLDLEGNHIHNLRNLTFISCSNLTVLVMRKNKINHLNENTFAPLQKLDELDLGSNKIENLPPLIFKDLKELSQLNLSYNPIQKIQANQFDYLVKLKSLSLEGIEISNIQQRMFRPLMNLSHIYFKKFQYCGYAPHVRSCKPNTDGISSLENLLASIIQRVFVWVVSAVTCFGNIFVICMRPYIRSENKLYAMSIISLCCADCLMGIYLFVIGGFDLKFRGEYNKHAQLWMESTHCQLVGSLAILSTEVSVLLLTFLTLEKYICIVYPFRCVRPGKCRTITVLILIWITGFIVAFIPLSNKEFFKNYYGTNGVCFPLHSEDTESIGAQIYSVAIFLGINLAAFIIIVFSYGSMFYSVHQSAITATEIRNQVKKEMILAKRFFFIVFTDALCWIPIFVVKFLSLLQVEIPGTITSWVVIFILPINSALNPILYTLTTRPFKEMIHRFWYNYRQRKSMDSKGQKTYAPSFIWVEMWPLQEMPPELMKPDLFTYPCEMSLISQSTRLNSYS
Assay: hRXFP1 HEK293 cAMP assay (HTRF)
Assay type: cell-based
Details: HEK293 cells stably expressing human RXFP1, 30 min at room temperature
Outline: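 In a stable human RXFP1 HEK293 line, compounds acted for 30 min at RT in buffer with 0.5 mM IBMX. HTRF then quantified cellular cAMP.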

Row | Compound | EC50 [nM]
1 | COc1ccc(COC[C@@H]2C[C@@H]2CO)cc1C(=O)N[C@H]1[C@@H](C(=O)Nc2ccc(F)c(C(F)(F)F)c2)[C@H]2CC[C@@H]1/C2=C\C1CC1 [Example 293, (1R,2S,3R,4R,7Z)-7-(cyclopropyl-methylidene)-N-[4-fluoro-3-(trifluoromethyl)phonyl]-3-[5-({[(1R,2S)-2-(hydroxymethyl)cyclopropyl]methoxy}methyl)-2-methoxybenzamido] bicyclo[2.2.1]heptane-2-carboxamide] | 67.1
2 | COc1ccc(/C=C/C(=O)N2CCC(C#N)CC2)cc1C(=O)N[C@H]1[C@@H](C(=O)Nc2ccc(F)c(C(F)(F)F)c2)[C@H]2CC[C@@H]1/C2=C\C1CC1 [Example 316, (1R,2S,3R,4R,7Z)-3-{5-[(1E)-3-(4-cyanopiperidin-1-yl)-3-oxoprop-1-en-1-yl]-2-methoxybenzamido}-7-(cyclopropylmethylidene)-N-[4-fluoro-3-(trifluoromethyl)phenyl]bicyclo[2.2.1] heptane-2-carboxamide] | 96.7
3 | COc1ccc(C2CC2C(=O)N2CCC(O)CC2)cc1C(=O)N[C@H]1[C@@H](C(=O)Nc2ccc(F)c(C(F)(F)F)c2)[C@H]2CC[C@@H]1/C2=C\C(F)(F)F (single isomer, unassigned) [Example 325] | 2940
4 | COc1ccc(/C=C/C(=O)N2CC[C@@H](O)C2)cc1C(=O)N[C@@H]1C2CCC(/C2=C/C(F)(F)F)[C@@H]1C(=O)Nc1ccc(F)c(C(F)(F)F)c1 (stereo partly drawn) [Example 129, (2S,3R,7Z)-N-[4-fluoro-3-(trifluoromethyl)phe-nyl]-3-{5-[(1E)-3-[(3R)-3-hydroxypyrrolidin-1-yl]-3-oxoprop-1-en-1-yl]-2-methoxybenzamido}-7-(2,2,2-trifluoroethylidene)bi-cyclo[2.2.1]heptane-2-carboxamide] | 111
5 | (7Z)-7-(4,4- dimethylpentylidene)- N-[4-fluoro-3- (trifluoromethyl)phe- nyl]-3-[5-(3- hydroxypropyl)-2- methoxybenzamido] bicyclo[2.2.1]heptane- 2-carboxamide [Example 164] | 67
6 | COc1ccc(/C=C/C(=O)N2CC3(CC(O)C3)C2)cc1C(=O)N[C@H]1[C@@H](C(=O)Nc2ccc(F)c(C(F)(F)F)c2)[C@H]2CC[C@@H]1/C2=C\C1CC1 [Example 309, (1R,2S,3R,4R,7Z)-7-(cyclopropylmethylidene)-N-[4-fluoro-3-(trifluoromethyl)phenyl]-3-{5-[(1E)-3-{6-hydroxy-2-azaspiro[3.3]heptan-2-yl}-3-oxoprop-1-en-1-yl]-2-methoxybenzamido} bicyclo[2.2.1]heptane-2-carboxamide] | 17.1
7 | COc1ccc(COCC2COC2)cc1C(=O)N[C@H]1[C@@H](C(=O)Nc2ccc(F)c(C(F)(F)F)c2)[C@H]2CC[C@@H]1/C2=C\C(F)(F)F [Example 284, (1R,2S,3R,4R,7Z)-N-[4-fluoro-3-(trifluoromethyl)phenyl]-3-(2-methoxy-5-{[(oxetan-3-yl)methoxy]methyl}benzamido)-7-(2,2,2-trifluoroethylidene) bicyclo[2.2.1] heptane-2-carboxamide] | 161
8 | COc1ccc(S(=O)(=O)N2CCNCC2CCO)cc1C(=O)N[C@H]1[C@@H](C(=O)Nc2ccc(F)c(C(F)(F)F)c2)[C@H]2CC[C@@H]1/C2=C\C(F)(F)F (stereo partly drawn) [Example 216, (1R,2S,3R,4R,7Z)-N-[4-fluoro-3-(trifluoromethyl)phenyl]-3-(5-{[2-(2-hydroxyethyl)piperazin-1-yl]sulfonyl}-2-methoxybenzamido)-7-(2,2,2-trifluoroethylidene) bicyclo[2.2.1]heptane-2-carboxamide] | 281
9 | COc1ccc(S(=O)(=O)N2CCN[C@@H](CO)C2)cc1C(=O)NC1C2CCC(/C2=C/C(F)(F)F)[C@@H]1C(=O)Nc1ccc(F)c(C(F)(F)F)c1 (stereo partly drawn) [Example 204, (2S,3R,7Z)-N-[4-fluoro-3-(trifluoromethyl)phe-nyl]-3-(5-{[(3R)-3-(hydroxymethyl)piper-azin-1-yl]sulfonyl}-2-methoxybenzamido)-7-(2,2,2-trifluoroethylidene)bi-cyclo[2.2.1]heptane-2-carboxamide] | 341
10 | COc1ccc(C(=O)N2C3CCC2COC3)cc1C(=O)N[C@H]1[C@@H](C(=O)Nc2ccc(F)c(C(F)(F)F)c2)[C@H]2CC[C@@H]1/C2=C\C1CC1 [Example 258, (1R,2S,3R, 4R,7Z)-7-(cyclopropyl-methylidene)-N-[4-fluoro-3-(trifluoromethyl)phenyl]-3-(2-methoxy-5-{3-oxa-8-azabicyclo [3.2.1]octane-8-carbonyl}benzamido) bicyclo[2.2.1] heptane-2-carboxamide] | 32.9
11 | CCCc1ccc(OCCO)c(C(=O)N[C@@H]2C3CCC(/C3=C/C(F)(F)F)[C@@H]2C(=O)Nc2ccc(F)c(C(F)(F)F)c2)c1 (stereo partly drawn) [Example 108, (2S,3R,7Z)-N-[4-fluoro-3-(trifluoromethyl)phe-nyl]-3-[2-(2-hydroxyethoxy)-5-propylbenzamido]-7-(2,2,2-trifluoroethylidene)bi-cyclo[2.2.1]heptane-2-carboxamide] | 2270
12 | COc1ccc(C(C)CCO)cc1C(=O)N[C@@H]1C2CCC(/C2=C/C(F)(F)F)[C@@H]1C(=O)Nc1ccc(F)c(C(F)(F)F)c1 (single isomer, unassigned) [Example 61] | 603
13 | COc1ccc(C2CC2C(=O)N2CCC(O)CC2)cc1C(=O)N[C@H]1[C@@H](C(=O)Nc2ccc(F)c(C(F)(F)F)c2)[C@H]2CC[C@@H]1/C2=C\C(F)(F)F (single isomer, unassigned) [Example 322] | 331

The next lines start with the values.

Row | EC50 [nM] | Compound
14 | 226 | COc1ccc(COC2CC=CC2)cc1C(=O)N[C@H]1[C@@H](C(=O)Nc2ccc(F)c(C(F)(F)F)c2)[C@H]2CC[C@@H]1/C2=C\C1CC1 [Example 285, (1R,2S,3R,4R,7Z)-3-{5-[(cyclopent-3-en-1-yloxy)methyl]-2-methoxybenzamido}-(cyclopropylmethyl-idene)-N-[4-fluoro-3-(trifluoromethyl)phenyl]bicyclo [2.2.1]heptane-2-carboxamide]
15 | 26 | COc1ccc(C(=O)N2CCC(O)CC2)cc1C(=O)N[C@H]1[C@@H](C(=O)Nc2ccc(F)c(C(F)(F)F)c2)[C@H]2CC[C@@H]1/C2=C\C1CC1 [Example 230, (1R,2S,3R,4R,7Z)-7-(cyclopropyl-methylidene)-N-[4-fluoro-3-(trifluoromethyl)phenyl]-3-[5-(4-hydroxypiperidine-1-carbonyl)-2-methoxybenzamido] bicyclo[2.2.1] heptane-2-carboxamide]
16 | 330 | COc1ccc(CN2C(=O)NC3(CCCC3)C2=O)cc1C(=O)N[C@@H]1C2CCC(/C2=C/C2CC2)[C@@H]1C(=O)Nc1ccc(F)c(C(F)(F)F)c1 (stereo partly drawn) [Example 21, (2S,3R,7Z)-7-(cyclopropylmethyli-dene)-3-[5-({2,4-dioxo-1,3-diazaspiro[4.4]nonan-3-yl}methyl)-2-methoxybenzamido]-N-[4-fluoro-3-(trifluoromethyl)phe-nyl]bicyclo[2.2.1]hept-ane-2-carboxamide]
17 | 3.1 | COc1c(F)cc(C(=O)NCC2(S(C)(=O)=O)CC2)cc1C(=O)N[C@H]1[C@@H](C(=O)Nc2ccc(F)c(C(F)(F)F)c2)[C@H]2CC[C@@H]1/C2=C\C1CC1 [Example 366, N3-[(1R,2R,3S,4R,7Z)-7-(cyclopropyl-methylidene)-3-{[4-fluoro 3-(trifluoromethyl)phenyl]carbamoyl}bicyclo[2.2.1]heptan-2-yl]-5-fluoro-N1-[(1-methanesulfonyl-cyclopropyl)methyl]-4-methoxybenzene-1,3-dicarboxamide]
18 | 54 | COc1ccc(C(=O)N2CC[C@H](O)C2)cc1C(=O)N[C@H]1[C@@H](C(=O)Nc2ccc(F)c(C(F)(F)F)c2)[C@H]2CC[C@@H]1/C2=C\C1CC1 [Example 254, (1R,2S,3R, 4R,7Z)-7-(cyclopropyl-methylidene)-N-[4-fluoro-3-(trifluoromethyl)phenyl]-3-{5-[(3S)-3-hydroxypyrrolidine-1-carbonyl]-2-methoxybenzamido} bicyclo[2.2.1] heptane-2-carboxamide]
19 | 0.95 | COc1ccc(C(=O)NCC2(S(C)(=O)=O)CC2)cc1C(=O)N[C@H]1[C@@H](C(=O)Nc2ccc(F)c(C(F)(F)F)c2)[C@H]2CC[C@@H]1/C2=C\C1CC1 [Example 232, N3-[(1R,2R,3S,4R,7Z)-7-(cyclopropyl-methylidene)-3-{[4-fluoro-3-(trifluoromethyl)phenyl]carbamoyl}bicyclo[2.2.1]heptan-2-yl]-NI-[(1-methanesulfonyl-cyclopropyl)methyl]-4-methoxybenzene-1,3-dicarboxamide]
20 | 126 | COc1ccc(C2CC3CC(O)CC32)cc1C(=O)N[C@H]1[C@@H](C(=O)Nc2ccc(F)c(C(F)(F)F)c2)[C@H]2CC[C@@H]1/C2=C\C1CC1 (single isomer, unassigned) [Example 341]
